What was measured:
[1] = biological target: T1, Ca/Calmodulin-Dependent PDE (Bos taurus, UniProt P62157); assay: Calmodulin (CaM) inhibitory activity: inhibition of CaM-potentiated cyclic nucleotide phosphodiesterase (PDE); format: biochemical; settings: CaM and PDE from bovine brain, [3H]-cGMP, 30° C., 10 minutes, pH 7.5; read-out: IC50 (concentration showing 50% inhibition of PDE activity potentiated by CaM)
T1 construct: CaM from bovine brain; from tissue; host or cells: bovine brain

[2] = tested on: Nitrogen-induced Hypoxia Model in Mouse; assay: Activity on Nitrogen-induced Hypoxia Model in Mouse; format: in vivo; settings: 30 mg/kg, p.o., 60 minutes before nitrogen, over control group (100%)
Description: Nine to ten mice per group were each orally given […] of a test compound. After 60 minutes from the administration, each mouse was put in a 500 ml-volume transparent container having a vent hole; and nitrogen gas was introduced into the container at a rate of 5000 ml/min. The time from the start of nitrogen introduction to respiratory standstill was measured, and a rate of increase of the time over that of a control group (100%) was obtained.

| IC50 [1] [µM] | SMILES | Rate of Increase of Survival Time [2] [%] |
| --- | --- | --- |
| 5.5 | COc1cc2c(CCN3CCN(c4cccc(Cl)c4C)CC3)nn(Cc3c[nH]cn3)c2cc1OC [Example 23, 3-(2-(4-(3-Chloro-2-methylphenyl)-1-piperazinyl)ethyl)-5,6-dimethoxy-1-(4-imidazolylmethyl)-1H-indazole] | – |
| 9.4 | COc1cc2[nH]nc(CCN3CCN(c4cccc(Cl)c4C)CC3)c2cc1OC [Example 81] | – |

| SMILES | IC50 [1] [µM] | Rate of Increase of Survival Time [2] [%] |
| --- | --- | --- |
| COc1ccc(Cn2nc(CCN3CCN(c4cccc(Cl)c4C)CC3)c3cc(OC)c(OC)cc32)cc1OC [Example 17, 3-(2-(4-(3-Chloro-2-methylphenyl)-1-piperazinyl)ethyl)-5,6-dimethoxy-1-(3,4-dimethoxybenzyl)-1H-indazole] | 3.1 | 19.2 |

Reference: patent publication US5681954A, “Piperazine derivatives” (Daiichi Pharmaceutical Co., Ltd., priority 1993, dated 1997)
